Test results taken from US20150072943A1, “MIXTURE OF POLAR G[…] USE IN THE TREATMENT OF PAIN AND COPD” (SANOFI, priority 2012, published 2015).

Assays:
[1] = system: release of TNFalpha induced by E. Coli-LPS in human bronchus parenchyma tissue culture; experiment: LPS-induced TNFalpha release in human bronchus parenchyma tissue culture; type: cell-based
Text: Human parenchymal lung tissue was obtained from patients undergoing resection for carcinoma at San Gerardo Hospital, Monza, Italy. Patients had not received radiotherapy or chronic treatment with steroids, opioids or chemotherapy. All specimens of parenchymal tissue were obtained from sites distant from the tumour. The study was approved by the institutional ethics committee of San Gerardo hospital Monza Italy and all volunteers gave informed consent. Resected lung tissue was dissected free of tumour, large airways, pleura and visible blood vessels and finely chopped using dissecting scissors, into 2 mm fragments during several washes with Kreb's buffer (([…]: NaCl 118.4, KCl 4.7, CaCl2 2.5, KH2PO4 1.2, NaHCO3 25, glucose 11.7). Six explants (total weight approx. 30 mg) were incubated in culture bioreactor (Synthecon/NASA USA) with RPMI-1640 medium containing 1% penicillin, 1% streptomycin, and 1% gentamycin at 37° C. in 5% carbon dioxide/air for 16 hours. Tissue was then either stimulated with 100 ng/ml LPS (Sigma-Aldrich) or maintained in cell culture media alone for 4 hours. For neutralization of TNF, tissue was incubated with 0.01, 0.1, or 1 μM of VB3323 for 1 hr prior to stimulation with 100 ng/ml LPS. […] The levels of TNFalpha in the supernatant were measured by enzyme-linked immunosorbent assay (ELISA) and the concentration corrected for tissue weight. […]

[2] = system: release of TNFalpha induced by E Coli LPS in mouse bronchus parenchyma tissue culture; experiment: LPS-induced TNFalpha release in mouse bronchus parenchyma tissue culture; type: cell-based
Method: The animals (BALB/c male mice, 20-22 g body weight) were sacrificed by cervical dislocation. The thoracic cage was opened cutting the ribs. Clamping the heart with surgical tweezers, lungs and heart were dissected from the thoracic cavity using surgical scissors and putted in cold Krebs solution ([…]: NaCl 118.4, KCl 4.7, CaCl2 2.5, KH2PO4 1.2, NaHCO3 25, glucose 11.7). Large airways and visible blood vessels were dissected. The lungs were divided in fragments of 30 mg (˜5 pieces/mouse) and finely chopped (six pieces of ˜2 mm3 each fragment) using a scalpel. Six explants (total weight 30 mg) were incubated per well (2.0 cm2) of a 24 well plate with 1 ml of RPMI-1640 medium (RPMI-1640+antibiotic antimycotic solution 100x, Sigma-Aldrich) at 37° C. in 5% carbon dioxide/air for 16 hours. Then the medium was replaced with fresh medium and the tissue was treated for 1 hour with compound. After one hour, the tissue was stimulated with 100 ng/ml LPS E. Coli 055:B5 (Sigma-Aldrich). 4 hour after LPS stimulation, supernatant was harvested and stored at −80° C. until ELISA analysis. Three of six tissue explants were fixed in 10% formalin buffer for histological/immunohistochemical analysis. The other three tissue explants were put in RNA-later buffer overnight and then stored at −80° C. […]

With C[C@@H]1C[C@H]2[C@@H]3CCC4=CC(=O)C=C[C@]4(C)[C@@]3(F)[C@@H](O)C[C@]2(C)[C@@]1(O)C(=O)CO [Dexamethasone] the inhibition at 1 µM [1] was 69% and the inhibition at 1 µM [2] was 67%.
